# According to patent US10617721B2, “Methods for genetic modification of stem cells” (Ospedale San Raffaele S.R.L., priority 2013, dated 2020):
# What was measured:
# [1] = tested on: CD34^+ cells from G-CSF mobilised peripheral blood (mPB); assay: VCN in long-term repopulating cells after xenotransplantation of mPB CD34+ cells transduced by protocols P0-P4; type: in vivo, NSG mice
# Protocol: CD34^+ cells from G-CSF mobilised peripheral blood (mPB) were thawed and placed in culture (10^6 cells/mL) in CellGro medium supplemented with SCF (300 ng/mL), FLT3L (300 ng/mL), TPO (100 ng/mL) and IL-3 (60 ng/mL). Cells were transduced with third generation lentiviral vectors coding for gp91^phox (vectors suitable for the gene therapy of chronic granulomatous disease) at a dose of 10^8 TU/mL. The different protocols used for ex vivo transduction of mPB CD34+ cells are illustrated in (E) and differ in terms of the presence (P1, P2, P3) or absence (P0, P4) of dmPGE2, the timing of dmPGE2 addition (after thawing: P1, P2; 120 min before transduction: P3) and the duration of culture (24 h: P2, P4 versus 44 h: P0, P1, P3).
# (F) 10×10^6 CD34^+ mPB cells from donor 1 were thawed, divided into 4 equal parts and transduced with the SP146/gp91.cogp91^phox. 126T LV from an industry-grade production (Molmed Spa) according to P0, P1, P2 or P3. The outgrowth of 5×10^5 cells put into culture at time zero was injected per mouse (actual numbers: P0 3.66×10^5 per mouse; P1: 4.66×10^5 per mouse; P2: 3.0×10^5 per mouse; P3: 4.86×10^5 per mouse). Mice were euthanised at 20 weeks post transplantation. BM was flushed and pooled from the mice belonging to the same group (P0, P1, P2: n=5 per group; P3: n=3 per group) and depleted for mouse cells. Enriched human cells were then subjected to vector copy number (VCN) analysis using primers specific for human cells (5 technical replicates).
# A replicate experiment was performed using mPB CD34^+ cells from a second donor (G). 15×10^6 CD34^+ mPB cells were thawed, divided into 4 equal parts and transduced with the SP146/gp91.gp91^phoxTGT.126T LV (a vector suitable for CGD gene therapy) coming from a lab-grade production according to protocols P0, P1 (44 h−/+dmPGE2) or P4, P2 (24 h−/+dmPGE2). The outgrowth of 9×10^5 cells put into culture at time zero was injected per mouse (actual numbers: P0 10×10^5 per mouse; P1: 8.2×10^5 per mouse; P4: 4.5×10^5 per mouse; P2: 5.3×10^5 per mouse). VCN was analysed on BM cells from each single mouse 13 weeks after transplantation using a qPCR assay specific for human cells.
# [2] = tested on: cord blood CD34^+ cells; assay: VCN and engraftment after xenotransplantation of dmPGE2-stimulated, LV-transduced cord blood CD34+ cells into NSG mice; type: in vivo
# Protocol: Cord blood CD34^+ cells were thawed and placed in culture (10^6 cells/mL) in Stem span serum free medium (SFEM) supplemented with 100 ng/mL SCF, 100 ng/mL FLT3L, 50 ng/mL TPO, 50 ng/mL IL-6 for 18 h (pre-stimulation) and subsequently transduced with a lentiviral vector at 10^8 TU/mL for 24 h. Cells were injected into sublethally irradiated, 8 week old NSG mice (1.5-3×10^5 cells per mouse), and vector copy number (VCN) was analysed in the pooled blood or bone marrow of each group of mice at the indicated time-points using primers specific for human cells. 3 replicate experiments are shown. Left graph: Cells were transduced with a PGK.TRAIL LV, and 10 μM dmPGE2 (dmPGE2 group, n=5 mice) or DMSO (Ctrl group, n=5 mice) was added directly after thawing (t=−16 h with respect to vector addition). Middle graph: Cells were transduced with a PGK.TRAIL LV, and 10 μM dmPGE2 (dmPGE2 group n=5) or DMSO (Ctrl group; n=8) was added 120 min before vector addition (t=−2 h). […], and 10 μM dmPGE2 (dmPGE2 group n=5) or DMSO (Ctrl group; n=5) was added 120 min before vector addition (t=−2 h). In all three experiments, the benefit in transduction observed in vitro was stably maintained long-term, up to 18 weeks after xenotransplantation.
# [3] = tested on: G-CSF-mobilised CD34+ peripheral blood stem cells; assay: Lentiviral vector transduction of G-CSF-mobilised CD34+ peripheral blood stem cells with or without dmPGE2 (in vitro); type: cell-based, human; settings: pre-stimulated with dmPGE2, 18 h
# Protocol: N=6 transductions of 3 mobilised peripheral blood donors. Cells were thawed, resuspended in serum-free, commercial culture medium (e.g. CellGro) at a density of 10^6 cells/mL in the presence of the following cytokines: 300 ng/mL SCF, 300 ng/mL FLT3L, 100 ng/mL TPO, 60 ng/mL IL-3, and prestimulated for 18 h, in the absence (control, Ctrl) or presence of dmPGE2. Transduction was performed with lentiviral vectors (3 different batches) at 10^8 TU/mL for 12-24 h. Vector copy number was assessed by qPCR after 14 days of in vitro culture in IMDM and 10% FCS. Relative VCN (normalised to the Control group) is shown.
# [4] = tested on: CD34^+ cells from adult bone marrow; assay: Lentiviral vector transduction of adult bone marrow CD34+, CD34+CD38- and CD34+CD38+ cells with or without dmPGE2; type: cell-based, human; settings: CD34^+ or CD34^+CD38^− HSPC from adult bone marrow after dmPGE2 treatment (10 μM)
# Protocol: The experiments were carried out as follows: CD34^+ cells from N=3 bone marrow donors (Lonza) were thawed and put into culture in Stem span serum free expansion medium (SFEM) under the following conditions: pre-stimulation in 300 ng/mL SCF, 300 ng/mL FLT3L, 100 ng/mL TPO, 60 ng/mL IL3 for 18 h. Cells were then divided into 3 groups: bulk CD34^+, CD34^+CD38^−, CD34^+CD38^+ (FACS-sorted on a MoFlow cytometer after marking with CD38-APC antibody from BD Bioscience). We then added dmPGE2 (10 μM) or DMSO to the cultures, and pre-stimulated the cells for another 16 h before they were transduced with a GFP-expressing lentiviral vector (LV.PGK.GFP) at 10^8 TU/mL. In vitro culture assays were performed, either as liquid culture for 14 days in IMDM+10% FCS (left) or colony forming cell (CFC) assay (right; plated 800 cells/mL methocult, analysed colony outgrowth after 14 d). Vector copy number was assessed by qPCR as described in Gentner B et al. Nat. Methods 2009; 6:63-66.
# [5] = tested on: cord blood CD34^+ cells; assay: Lentiviral vector transduction of cord blood CD34+ cells with or without dmPGE2, VCN by qPCR (in vitro); type: cell-based, human
# Protocol: CD34^+ cells from n=4 cord blood donors (Lonza) were thawed and put into culture in Stem span serum free expansion medium (SFEM) supplemented with 100 ng/mL SCF, 100 ng/mL FLT3L, 50 ng/mL TPO, 50 ng/mL IL6 for 18 h (pre-stimulation), in the presence or absence of 10 μM dmPGE2. After pre-stimulation, cells were incubated with 10^8 TU/mL of a lentiviral vector for 24 h. Cells were then cultured in vitro (n=5 replicates) for 14 days in IMDM+10% FCS before vector copy number (VCN) was measured by qPCR as described in Gentner, B. et al. (2009) Nat.
# [6] = tested on: human HSPCs; assay: Timing of dmPGE2 stimulation and transducability of human HSPCs by lentiviral vectors; type: cell-based
# Protocol: This experiment was carried out on 1 cord blood and 1 mobilised peripheral blood donor, the relative VCN is shown (normalised to its respective control).
smiles,measurement,setting,value
"CCCCC(C)(C)[C@H](O)/C=C/[C@H]1[C@H](O)CC(=O)[C@@H]1C/C=C\CCCC(=O)O [dmPGE2, 16,16-dimethyl prostaglandin E2]",sustained gain in transduction efficiency in long-term repopulating cells,"[1]; P1 condition (dmPGE2 after thawing, 44 h culture), donor 2, BM 13 weeks after transplantation",did not result in a sustained gain in transduction efficiency
same,transduction-promoting effect in long-term repopulating cells,"[1]; P2 (24 h culture with dmPGE2), donor 2, BM 13 weeks after transplantation",increased transduction well above levels achieved by a 44 h standard protocol
same,increase in VCN into long-term repopulating cells,"[1]; P2 condition (dmPGE2 after thawing, 24 h culture), donor 1, BM 20 weeks post transplantation",~50%
same,"increase in VCN, P3 protocol","[1]; P3 (dmPGE2 120 min before transduction, 44 h culture), donor 1, BM 20 weeks",not statistically significant
same,time over which benefit in transduction was stably maintained after xenotransplantation,"[2]; 10 μM dmPGE2 at t=−16 h or t=−2 h, three experiments",up to 18 weeks
same,engraftment levels,"[2]; NSG mice, dmPGE2-treated cells",not negatively affected
same,time over which difference in VCN was maintained after transplantation into NSG mice,[2]; after transplantation of dmPGE2-treated cells,more than 4 months
same,transduction by lentiviral vectors,[3],more efficient transduction
same,increased gene transfer efficiency,[4],1.5 fold
same,increase in gene transfer (VCN),"[5]; 10 μM dmPGE2 during 18 h pre-stimulation, LV 10^8 TU/mL 24 h, VCN after 14 days culture",50%
same,increased gene transfer efficiency,[5]; CD34^+ or CD34^+CD38^− HSPC from cord blood after dmPGE2 treatment,1.5 fold
same,increase in VCN,"[6]; dmPGE2 added 2 h before LV exposure (t=−2 h), 1 cord blood and 1 mobilised peripheral blood donor",100%
same,VCN increase,[6]; dmPGE2 added at the time of thawing (t=−16 h),~50%
